In EP0982028A1, “New use of taxoid derivatives” (RHONE-POULENC RORER S.A., priority 1998, dated 2000):
Converted amounts (≈) assume the structure as drawn. “And” between values parts separate entries of the source, which are not always exact repeats. Equal entries are not always repeated. “Also recorded” adds a separate entry of the source. Where two headings read alike, the source gives them in different places.

Experiments:
[1] = test system: human colon adenocarcinoma CaCo-2 cell line (ATCC HTB37); test: In vitro growth inhibition on CaCo-2 cell line (neutral red); format: cell-based
Experimental: The methodology was used, i.e., 96 well plates, time of contact of the drugs (96 hours) and neutral red coloration of viable cell. Results expressed as IC50, were summarized in the next table.

[2] = test system: P388/VCR; details: IC50 resistant / IC50 sensitive cells, 4 days of continuous exposure
Experimental: (§5) The resistance factor was calculated by dividing the IC50 value obtained on resistant cells by the IC50 value obtained on sensitive cells.

[3] = test system: P388/CPT5 cell line; details: P388/CPT5, acquired resistance to camptothecin, no P-glycoprotein
Experimental: as §5

[4] = test system: KB V1; details: IC50 resistant / IC50 sensitive cells, 4 days of continuous exposure
Experimental: as §5

[5] = test system: colon adenocarcinoma C51; test: In vivo antitumor activity against colon adenocarcinoma C51; set-up: species or system BALB/c female mice; details: for T-C: tumor to reach 750 mg
Experimental: (§1) In vivo schedule of administration and antitumor efficacy studies were carried out using a preclinical standard formulation of Product of formula Ia in ethanol: polysorbate 80 (50:50, v/v). After dilution, the final concentration was 5 % ethanol, 5 % polysorbate, 90 % glucose-5 % in water.
(§2) Product of formula Ia was administered by the intravenous route (i.v.). The experiments and data analyses were done according to standard protocols.
The activity end points used to assess subcutaneously implanted solid tumors were: • tumor growth inhibition, T/C, where T and C are the median tumor weights in mg of the treated and the control groups, respectively. […] A T/C < 10 %, ++, is considered as a high antitumor activity level which justifies further development (DN-2 level).
(§3) In cases of high antitumor activity, the two following end points were also used: • tumor growth delay, T-C, where T and C are the median times in days required for the treatment group and the control group tumors to reach a predetermined size (750 to 1500 mg). • log cell kill, which is the logarithm of the total number of cells killed by treatment.
(§4) Toxicity was based on drug deaths (≥ 10 %) or a weight loss nadir > 20 %. Docetaxel was used for comparison trials when needed.
Product of formula Ia was administered i.v. on day 4, 6, 8. […] The dosage below yielded a 2.2 log cell kill.

[6] = test system: advanced colon adenocarcinoma C38; test: In vivo antitumor activity against advanced stage colon adenocarcinoma C38; set-up: species or system B6D2F1 female mice; details: for T-C: tumor to reach 1000 mg
Experimental: as §1, §2, §3
For advanced stage tumors, regressions can be either partial (more than 50 % reduction in tumor mass) or complete. Complete regressions are included in the partial regressions.
as §4
Product of formula Ia was administered i.v. to mice bearing 200 to 400 mg of tumor. […] In comparison, docetaxel at the HNTD produced only 40 % partial regressions in the same trial.

[7] = test system: P388/DOX; details: IC50 on resistant cells divided by IC50 on sensitive cells, 4 days of continuous exposure
Experimental: as §5

[8] = test system: P388/TXT; details: IC50 resistant / IC50 sensitive cells, 4 days of continuous exposure
Experimental: as §5

[9] = test system: Calc18/TXT; details: IC50 resistant / IC50 sensitive cells, 4 days of continuous exposure
Experimental: as §5

[10] = test system: HL60/TAX; details: IC50 resistant / IC50 sensitive cells, 4 days of continuous exposure
Experimental: as §5

[11] = 5.8 mg/kg per injection i.v., days 4,6,8
[12] = 9.3 mg/kg per injection i.v., days 4,6,8
[13] = 15.0 mg/kg per injection i.v., days 4,6,8
[14] = 24.2 mg/kg per injection i.v., days 4,6,8
[15] = 7.7 mg/kg per injection i.v., days 14,17,20
[16] = 12.4 mg/kg per injection i.v., days 14,17,20
[17] = 20.0 mg/kg per injection i.v., days 14,17,20
[18] = 32.2 mg/kg per injection i.v., days 14,17,20

Molecule | Resistance factor [2] | Resistance factor [3] | Resistance factor [4] | Comments [5, 11] | T/C in % day 18 [5, 11] [%] | log cell kill total [5, 11] | T-C [5, 11] [days] | Comments [5, 12] | T/C in % day 18 [5, 12] [%] | log cell kill total [5, 12] | T-C [5, 12] [days] | Comments [5, 13] | Comments [5, 14] | Comments [6, 15] | Complete regressions [6, 15] | log cell kill total [6, 15] | T-C [6, 15] [days] | Comments [6, 16] | Complete regressions [6, 16] | Comments [6, 17] | other results
CC(=O)O[C@@]12CO[C@@H]1C[C@H](O)[C@@]1(C)C(=O)[C@H](O)C3=C(C)[C@@H](OC(=O)[C@H](O)[C@@H](NC(=O)OC(C)(C)C)c4ccccc4)C[C@@](O)([C@@H](OC(=O)c4ccccc4)[C@H]21)C3(C)C [Docetaxel] | 5.8 | 10.5 | 59.0 | Active | 4 | 0.9 | 8.9 | Active | 0 | 2.2 | 22.4 | HNTD highly active | Toxic | Inactive | 0/5 | 0.3 | 2.5 | Marginal activity | 0/5 | HNTD highly active | IC50 ([1]; Homo sapiens, 96 well plates, 96 hours contact, neutral red): 0.108 ± 0.017 mg/L (≈ 0.134 µM); IC50 on CaCo-2 cells relative to Product of formula Ia ([1]; IC50 docetaxel versus IC50 Product of formula Ia): 4.9 times; Resistance factor ([4]; listed as docetaxel): 59; T/C in % day 18 [5, 13]: 0%; log cell kill total [5, 13]: 3.1; T-C [5, 13]: 31.1 days; bwl = body weight loss [5, 14]: 22.8%; log cell kill total [6, 16]: 0.7; T-C [6, 16]: 6.1 days; Complete regressions [6, 17]: 0/5; log cell kill total [6, 17]: 3.1; T-C [6, 17]: 29.1 days; Comments [6, 18]: Toxic; bwl = body weight loss [6, 18]: 20.6%; partial regressions ([6]; at the HNTD, partial = more than 50 % reduction in tumor mass): 40%; Resistance factor [7]: 50.7; Resistance factor ([7]; listed as docetaxel): 50; Resistance factor [8]: 4.8; Resistance factor [9]: 23.5; Resistance factor [10]: 8.1
CC[C@@]1(O)C(=O)OCc2c1cc1n(c2=O)Cc2cc3ccccc3nc2-1 [camptothecin] | – | 286 | – | – | – | – | – | – | – | – | – | – | – | – | – | – | – | – | – | – | –
4α-acetoxy-2α-benzoyloxy-5β,20-epoxy-1β-hydroxy-7β,10β-dimethoxy-9-oxo-11-taxen-13α-yl (2R,3S)-3 tert-butoxycarbonylamino-2-hydroxy-3-phenylpropionate [Product of formula Ia] | 1.8 | 4.8 | 7.6 | Active | 0 | 2.2 | 21.9 | highly active; also recorded: HNTD active | 0 | 2.6 | 25.8 | Toxic | Toxic | Active | 2/5 | 2.7 | 25.0 | Highly active | the same number of complete regressions and 5/5 | HNTD highly active | DD = drug death [5, 13]: 1/5; DD = drug death [5, 14]: 5/5; HNTD = highest nontoxic dose ([5]; i.v. on day 4, 6, 8, C51-bearing mice): 9.3 mg/kg/injection; TFS = tumor free survivors observed on day 139 [6, 16]: 4/5; tumor free survivors ([6]; 12.4 mg/kg/injection i.v.): 80%; Complete regressions [6, 17]: 5/5; TFS = tumor free survivors observed on day 139 [6, 17]: all mice being tumor free survivors and 5/5; Comments [6, 18]: Toxic; DD = drug death [6, 18]: 1/5; HNTD = highest nontoxic dose ([6]; i.v., mice bearing 200 to 400 mg of tumor): 20 mg/kg/injection; Resistance factor [7]: 10.0; Resistance factor ([7]; listed as product of formula Ia): 10; Resistance factor [8]: 1.8; Resistance factor [9]: 4.3; Resistance factor [10]: 2.5
